The target in assay [1] is κ receptor. Description: In vitro receptor binding, κ receptor, radioligand U69,593. To be noted: forebrain membranes, 25° C., 60 min. Details: species or system guinea-pig or rat. As to the method:
(§1) The following procedure was used to determine the ability of various opioid peptides to inhibit binding at opioid receptors. Crude membranes were prepared by homogenization of guinea-pig or rat forebrain samples in 20 ml of ice-cold 50 mM Tris-HCl with a Brinkman Polytron (setting 6, 15 sec.). Buffer was added to obtain a final volume of 40 ml, and the homogenate centrifuged in a Sorval SS-34 rotor at 39,000 g for 10 min. at 0°-4° C. The resulting supernatant was decanted and discarded. The pellet was rehomogenized in ice-cold buffer, pre-incubated at 37° C. for 45 min., diluted, and centrifuged as before. The final pellet was resuspended in 50 mM Tris HCl and held on ice for the receptor binding assay.
(§2) Aliquots of the washed membrane preparation (described above) were incubated in 50 mM Tris HCl at a total volume of 2.0 ml at 25° C. with an opioid receptor ligand (see below) and various concentrations of the unlabeled test compounds. Mu and kappa receptor assays were incubated for 60 minutes. […] At the end of the incubation periods, the assays were terminated by rapid filtration though Whatman GF/B glass fiber filters, and the bound radioactivity trapped on the filters counted by liquid scintillation spectrometry. For each of the three receptor subtypes, specific binding was calculated as the total radioligand bound minus that bound in the presence of 1000 nM levallorphan. […]

Assay [2] addresses μ receptor. Description: In vitro receptor binding, μ receptor, radioligand DAGO. Further details: species or system guinea-pig or rat. To be noted: forebrain membranes, 25° C., 60 min. As to the method:
as §1, §2

Assay [3] has as its target δ receptor. Description: In vitro receptor binding, δ receptor, radioligand DPPE. Details: species or system guinea-pig or rat. To be noted: forebrain membranes, 25° C., 40 min. As to the method:
as §1, §2

For assay [4], the system named is Human NSLC A549. Description: Subcutaneous tumor assay, human non-small cell lung cancer A549 xenografts. The format is in vivo, athymic nude mice. As to the method: Table 5 compares the antitumor activity of an opioid BIM-38009 versus methadone. A subcutaneous tumor assay was used in which xenografts of the human non-small cell lung cancer were implanted s.c. in athymic nude mice. Test compounds were administered s.c. or i.p., twice daily, from day 4 post tumor implantation to day 35. The results are reported as means±s.e.m. on 8 animals per group. For structure of BIM-38009, see above.

The structures appear in SMILES notation.

In the case of `C[C@@H](NC(=O)[C@@H](N)Cc1ccc(O)cc1)C(=O)NCC(=O)N[C@@H](CCc1ccccc1)C(N)=O` [BIM-38046, tyrosyl-D-alanyl-glycyl-homophenylalanine amide], the Ki came out at 849 nM in assay [1], 2.92 ± 1.12 nM in assay [2] and 72.7 nM in assay [3].
`CCC(=O)C(CC(C)N(C)C)(c1ccccc1)c1ccccc1` (centres unmarked) [Methadone]: the “Tumor Weight (mg) (Day 34)” value in assay [4] (A549 xenograft s.c., treatment days 4-35, mean ± s.e.m., 8 animals per group) is given as 337 ± 57 mg. In addition, the “& T/C” value in assay [4] (A549 xenograft, tumor weight Day 34, treated versus control) was determined as 110.
